# Assay results published in ChEMBL document CHEMBL2203234, “Optimisation of imidazole compounds as selective TAAR1 agonists: discovery of RO5073012” (Bioorg Med Chem Lett, 2012).
# Key:
# [1] = target: Galanin receptor type 2 (Homo sapiens) (UniProt O43603); test: Inhibition of human GAL2 receptor at 10 uM by CEREP assay
# [2] = target: Mu-type opioid receptor (Homo sapiens) (UniProt P35372); test: Inhibition of human MOP receptor at 10 uM by CEREP assay
# [3] = Inhibition of K+v channel at 10 uM by CEREP assay
# [4] = Inhibition of NMDA receptor PCP site at 10 uM by CEREP assay
# [5] = target: 5-hydroxytryptamine receptor 6 (Homo sapiens) (UniProt P50406); test: Inhibition of human 5-HT6 receptor at 10 uM by CEREP assay
# [6] = target: MAO-B (amine oxidase [flavin-containing] B) (Homo sapiens, UniProt P27338); test: Inhibition of human MAO-B at 10 uM by CEREP assay
# MAO-B (amine oxidase [flavin-containing] B), sequence (P27338 whole entry): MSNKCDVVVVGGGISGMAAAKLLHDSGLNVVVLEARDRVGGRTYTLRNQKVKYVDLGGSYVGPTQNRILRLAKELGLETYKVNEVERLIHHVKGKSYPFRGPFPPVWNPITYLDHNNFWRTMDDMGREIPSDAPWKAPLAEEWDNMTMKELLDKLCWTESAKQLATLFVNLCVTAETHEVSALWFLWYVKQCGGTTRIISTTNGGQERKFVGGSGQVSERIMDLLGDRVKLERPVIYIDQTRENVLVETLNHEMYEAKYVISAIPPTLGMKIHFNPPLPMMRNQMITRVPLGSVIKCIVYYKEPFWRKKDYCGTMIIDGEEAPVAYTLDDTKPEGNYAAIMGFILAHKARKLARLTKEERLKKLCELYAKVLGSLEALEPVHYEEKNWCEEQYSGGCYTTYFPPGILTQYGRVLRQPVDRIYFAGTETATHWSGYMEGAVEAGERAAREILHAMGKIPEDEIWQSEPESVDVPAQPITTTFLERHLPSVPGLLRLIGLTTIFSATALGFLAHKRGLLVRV
# [7] = Inhibition of Na+ channel site 2 at 10 uM by CEREP assay
# [8] = target: Phosphodiesterase 4 (Homo sapiens) (UniProt P27815+Q08499+Q07343+Q08493); test: Inhibition of human PDE4 at 10 uM by CEREP assay; assay type: protein assay
# [9] = target: 5-hydroxytryptamine receptor 2A (Homo sapiens) (UniProt P28223); test: Inhibition of human 5-HT2A receptor at 10 uM by CEREP assay
# 5-hydroxytryptamine receptor 2A (Homo sapiens), sequence (P28223 whole entry): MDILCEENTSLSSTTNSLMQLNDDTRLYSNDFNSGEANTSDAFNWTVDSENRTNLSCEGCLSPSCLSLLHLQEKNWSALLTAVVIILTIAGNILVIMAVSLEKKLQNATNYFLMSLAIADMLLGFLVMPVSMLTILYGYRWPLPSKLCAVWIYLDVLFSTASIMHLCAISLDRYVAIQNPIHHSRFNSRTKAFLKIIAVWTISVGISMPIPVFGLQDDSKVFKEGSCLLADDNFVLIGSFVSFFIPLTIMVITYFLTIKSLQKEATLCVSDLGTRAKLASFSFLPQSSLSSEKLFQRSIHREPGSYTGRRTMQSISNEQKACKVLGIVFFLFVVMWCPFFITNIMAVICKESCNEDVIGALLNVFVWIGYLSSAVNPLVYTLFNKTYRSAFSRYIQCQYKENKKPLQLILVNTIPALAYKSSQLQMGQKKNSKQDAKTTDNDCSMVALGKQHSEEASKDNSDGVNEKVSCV
# [10] = target: Muscarinic acetylcholine receptor M4 (Homo sapiens) (UniProt P08173); test: Inhibition of human M4 receptor at 10 uM by CEREP assay
# [11] = target: Thromboxane A2 receptor (Homo sapiens) (UniProt P21731); test: Inhibition of human TXA2/PGH2 receptor at 10 uM by CEREP assay
# [12] = target: Thyrotropin-releasing hormone receptor (Homo sapiens) (UniProt P34981); test: Inhibition of TRH receptor at 10 uM by CEREP assay
# Thyrotropin-releasing hormone receptor (Homo sapiens), sequence (P34981 whole entry): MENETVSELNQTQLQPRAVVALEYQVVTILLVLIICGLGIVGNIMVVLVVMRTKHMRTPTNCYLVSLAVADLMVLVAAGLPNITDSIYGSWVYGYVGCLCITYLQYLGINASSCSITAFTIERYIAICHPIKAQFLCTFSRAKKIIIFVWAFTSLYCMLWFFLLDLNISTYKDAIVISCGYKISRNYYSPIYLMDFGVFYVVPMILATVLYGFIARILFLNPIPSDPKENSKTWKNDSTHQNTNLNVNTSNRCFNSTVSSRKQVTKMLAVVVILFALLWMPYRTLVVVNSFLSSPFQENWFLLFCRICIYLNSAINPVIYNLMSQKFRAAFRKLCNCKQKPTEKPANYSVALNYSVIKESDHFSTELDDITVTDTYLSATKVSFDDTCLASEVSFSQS
# [13] = target: Endothelin-1 receptor (Homo sapiens) (UniProt P25101); test: Inhibition of human ETA receptor at 10 uM by CEREP assay
# [14] = Inhibition of sst receptor at 10 uM by CEREP assay
# [15] = Cmax in rat at 10 mg/kg, po; assay type: ADME, organism-based; set-up: dose 10 mg/kg, route oral; conditions: in vivo
# [16] = Inhibition of K-ATP channel at 10 uM by CEREP assay
# [17] = target: 5-hydroxytryptamine receptor 1D (Homo sapiens) (UniProt P28221); test: Inhibition of 5-HT1D receptor at 10 uM by CEREP assay
# [18] = target: Type-1 angiotensin II receptor (Homo sapiens) (UniProt P30556); test: Inhibition of human AT1 receptor at 10 uM by CEREP assay
# Type-1 angiotensin II receptor (Homo sapiens), sequence (P30556 whole entry): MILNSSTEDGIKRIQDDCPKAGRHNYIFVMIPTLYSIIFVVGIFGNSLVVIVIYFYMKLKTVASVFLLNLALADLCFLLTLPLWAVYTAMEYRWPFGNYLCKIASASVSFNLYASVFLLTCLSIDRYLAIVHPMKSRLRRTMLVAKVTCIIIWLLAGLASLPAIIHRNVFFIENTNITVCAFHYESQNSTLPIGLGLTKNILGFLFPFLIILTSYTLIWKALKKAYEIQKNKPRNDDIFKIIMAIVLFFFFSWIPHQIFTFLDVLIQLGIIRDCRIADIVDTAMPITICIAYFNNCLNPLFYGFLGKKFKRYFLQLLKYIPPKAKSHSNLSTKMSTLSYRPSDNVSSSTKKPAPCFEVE
# [19] = target: C5a anaphylatoxin chemotactic receptor 1 (Homo sapiens) (UniProt P21730); test: Inhibition of human C5a receptor at 10 uM by CEREP assay
# C5a anaphylatoxin chemotactic receptor 1 (Homo sapiens), sequence (P21730 whole entry): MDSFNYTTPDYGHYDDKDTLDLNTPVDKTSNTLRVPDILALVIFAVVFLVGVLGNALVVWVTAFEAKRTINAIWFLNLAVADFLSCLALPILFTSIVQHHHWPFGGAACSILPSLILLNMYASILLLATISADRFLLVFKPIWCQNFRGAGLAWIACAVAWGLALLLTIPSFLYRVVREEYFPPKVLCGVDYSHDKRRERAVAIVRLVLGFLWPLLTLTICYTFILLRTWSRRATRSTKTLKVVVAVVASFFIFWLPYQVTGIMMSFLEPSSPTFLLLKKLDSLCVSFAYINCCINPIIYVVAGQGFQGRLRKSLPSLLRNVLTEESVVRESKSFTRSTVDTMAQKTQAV
# [20] = target: Growth hormone secretagogue receptor type 1 (Homo sapiens) (UniProt Q92847); test: Inhibition of human Ghrelin receptor at 10 uM by CEREP assay
# [21] = target: Beta-2 adrenergic receptor (Homo sapiens) (UniProt P07550); test: Inhibition of human beta 2 adrenergic receptor at 10 uM by CEREP assay
# [22] = target: cGMP-dependent 3',5'-cyclic phosphodiesterase (Homo sapiens) (UniProt O00408); test: Inhibition of human PDE2 at 10 uM by CEREP assay
# [23] = target: Androgen receptor (Homo sapiens) (UniProt P10275); test: Inhibition of human androgen receptor at 10 uM by CEREP assay
# Androgen receptor (Homo sapiens), sequence (P10275 whole entry): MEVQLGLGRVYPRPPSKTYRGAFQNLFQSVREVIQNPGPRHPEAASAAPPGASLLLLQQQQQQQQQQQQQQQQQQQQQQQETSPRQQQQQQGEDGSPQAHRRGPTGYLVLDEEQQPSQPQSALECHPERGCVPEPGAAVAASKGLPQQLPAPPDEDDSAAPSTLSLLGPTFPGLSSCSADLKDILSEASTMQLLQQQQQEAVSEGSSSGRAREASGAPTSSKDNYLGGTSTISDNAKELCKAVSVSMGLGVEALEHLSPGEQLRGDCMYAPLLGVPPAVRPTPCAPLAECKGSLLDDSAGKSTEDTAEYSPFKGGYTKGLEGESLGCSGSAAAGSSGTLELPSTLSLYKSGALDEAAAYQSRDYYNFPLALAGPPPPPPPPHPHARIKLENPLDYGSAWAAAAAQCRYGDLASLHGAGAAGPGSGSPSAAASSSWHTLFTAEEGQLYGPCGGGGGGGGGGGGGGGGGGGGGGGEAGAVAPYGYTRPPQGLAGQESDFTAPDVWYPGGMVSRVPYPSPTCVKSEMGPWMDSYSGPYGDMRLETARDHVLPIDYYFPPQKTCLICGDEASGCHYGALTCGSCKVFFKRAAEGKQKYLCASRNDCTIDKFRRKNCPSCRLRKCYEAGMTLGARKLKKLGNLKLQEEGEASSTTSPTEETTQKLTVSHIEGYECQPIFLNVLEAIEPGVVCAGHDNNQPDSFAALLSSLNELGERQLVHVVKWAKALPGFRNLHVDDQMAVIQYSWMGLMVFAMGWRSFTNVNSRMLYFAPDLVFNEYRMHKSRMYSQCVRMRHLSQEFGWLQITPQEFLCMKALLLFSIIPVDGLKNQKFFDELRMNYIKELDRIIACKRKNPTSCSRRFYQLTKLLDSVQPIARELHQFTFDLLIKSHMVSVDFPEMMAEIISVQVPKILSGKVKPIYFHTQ
# CHL = test: Selectivity ratio of Ki for human adrenergic alpha2A receptor expressed in CHL cells to Ki for human TAAR1 receptor; assay type: cell-based
# [24] = Inhibition of ML1 receptor at 10 uM by CEREP assay
# [25] = target: Platelet-activating factor receptor (Homo sapiens) (UniProt P25105); test: Inhibition of human PAF receptor at 10 uM by CEREP assay
# [26] = target: Neurotensin receptor type 1 (Homo sapiens) (UniProt P30989); test: Inhibition of human NT1 receptor at 10 uM by CEREP assay
# Neurotensin receptor type 1 (Homo sapiens), sequence (P30989 whole entry): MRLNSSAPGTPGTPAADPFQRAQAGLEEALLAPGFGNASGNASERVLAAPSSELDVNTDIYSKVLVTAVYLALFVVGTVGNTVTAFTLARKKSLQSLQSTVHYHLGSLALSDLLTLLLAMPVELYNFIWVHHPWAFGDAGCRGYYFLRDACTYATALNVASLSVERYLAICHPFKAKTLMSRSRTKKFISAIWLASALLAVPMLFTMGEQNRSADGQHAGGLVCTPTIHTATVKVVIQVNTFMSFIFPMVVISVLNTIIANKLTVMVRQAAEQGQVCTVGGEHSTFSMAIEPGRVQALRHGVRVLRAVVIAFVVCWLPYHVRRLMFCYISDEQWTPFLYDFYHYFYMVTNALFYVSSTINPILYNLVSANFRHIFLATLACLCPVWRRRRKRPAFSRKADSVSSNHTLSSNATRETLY
# [27] = target: Adenosine receptor A1 (Homo sapiens) (UniProt P30542); test: Inhibition of human A1 receptor at 10 uM by CEREP assay
# [28] = target: 5-hydroxytryptamine receptor 1A (Homo sapiens) (UniProt P08908); test: Inhibition of human 5-HT1A receptor at 10 uM by CEREP assay
# 5-hydroxytryptamine receptor 1A (Homo sapiens), sequence (P08908 whole entry): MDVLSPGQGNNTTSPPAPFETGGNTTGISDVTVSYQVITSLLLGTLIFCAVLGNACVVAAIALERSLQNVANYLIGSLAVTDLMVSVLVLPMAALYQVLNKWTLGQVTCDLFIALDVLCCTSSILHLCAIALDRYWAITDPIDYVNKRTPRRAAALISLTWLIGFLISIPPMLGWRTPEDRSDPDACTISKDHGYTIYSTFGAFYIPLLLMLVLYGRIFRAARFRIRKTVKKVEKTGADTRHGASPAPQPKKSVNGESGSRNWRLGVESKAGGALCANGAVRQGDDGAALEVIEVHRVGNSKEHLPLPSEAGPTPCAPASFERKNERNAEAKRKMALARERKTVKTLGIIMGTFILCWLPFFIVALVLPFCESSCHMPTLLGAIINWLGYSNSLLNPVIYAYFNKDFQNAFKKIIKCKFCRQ
# [29] = target: Cannabinoid receptor 2 (Homo sapiens) (UniProt P34972); test: Inhibition of human CB2 receptor at 10 uM by CEREP assay
# [30] = target: 5-hydroxytryptamine receptor 3A (Homo sapiens) (UniProt P46098); test: Inhibition of human 5-HT3 receptor at 10 uM by CEREP assay
# [31] = target: 5-hydroxytryptamine receptor 4 (Homo sapiens) (UniProt Q13639); test: Inhibition of human 5-HT4 receptor at 10 uM by CEREP assay
# [32] = target: Sodium-dependent noradrenaline transporter (Homo sapiens) (UniProt P23975); test: Inhibition of human NE transporter at 10 uM by CEREP assay
# [33] = target: Neuropeptide Y receptor type 2 (Homo sapiens) (UniProt P49146); test: Inhibition of human Y2 receptor at 10 uM by CEREP assay
# [34] = target: D(4) dopamine receptor (Homo sapiens) (UniProt P21917); test: Inhibition of human D4.4 receptor at 10 uM by CEREP assay
# D(4) dopamine receptor (Homo sapiens), sequence (P21917 whole entry): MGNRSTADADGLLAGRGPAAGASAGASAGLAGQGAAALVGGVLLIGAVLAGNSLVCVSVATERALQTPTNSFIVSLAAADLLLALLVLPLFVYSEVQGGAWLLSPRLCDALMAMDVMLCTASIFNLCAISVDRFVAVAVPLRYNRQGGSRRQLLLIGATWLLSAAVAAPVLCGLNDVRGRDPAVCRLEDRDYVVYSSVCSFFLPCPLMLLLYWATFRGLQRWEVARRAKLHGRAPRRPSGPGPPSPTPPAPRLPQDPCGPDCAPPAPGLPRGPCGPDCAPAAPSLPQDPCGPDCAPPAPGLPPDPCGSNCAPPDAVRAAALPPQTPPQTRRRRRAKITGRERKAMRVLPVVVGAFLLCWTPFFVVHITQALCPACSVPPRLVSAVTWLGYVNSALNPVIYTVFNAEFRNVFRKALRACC
# [35] = Inhibition of L-type Ca2+ channel verapamil site at 10 uM by CEREP assay
# [36] = target: Catechol O-methyltransferase (Homo sapiens) (UniProt P21964); test: Inhibition of COMT at 10 uM by CEREP assay
# Catechol O-methyltransferase (Homo sapiens), sequence (P21964 whole entry): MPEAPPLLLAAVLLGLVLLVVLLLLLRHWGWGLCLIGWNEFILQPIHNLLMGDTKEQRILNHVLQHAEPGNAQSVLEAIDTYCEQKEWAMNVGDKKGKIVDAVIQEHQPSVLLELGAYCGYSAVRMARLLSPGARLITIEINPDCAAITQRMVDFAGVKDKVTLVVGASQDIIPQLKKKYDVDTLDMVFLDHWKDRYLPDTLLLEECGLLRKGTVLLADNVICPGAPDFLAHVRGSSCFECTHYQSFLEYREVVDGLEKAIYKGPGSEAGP
# [37] = Inhibition of Adenylyl cyclase at 10 uM by CEREP assay
# [38] = target: Kappa-type opioid receptor (Homo sapiens) (UniProt P41145); test: Inhibition of KOP receptor at 10 uM by CEREP assay
# Kappa-type opioid receptor (Homo sapiens), sequence (P41145 whole entry): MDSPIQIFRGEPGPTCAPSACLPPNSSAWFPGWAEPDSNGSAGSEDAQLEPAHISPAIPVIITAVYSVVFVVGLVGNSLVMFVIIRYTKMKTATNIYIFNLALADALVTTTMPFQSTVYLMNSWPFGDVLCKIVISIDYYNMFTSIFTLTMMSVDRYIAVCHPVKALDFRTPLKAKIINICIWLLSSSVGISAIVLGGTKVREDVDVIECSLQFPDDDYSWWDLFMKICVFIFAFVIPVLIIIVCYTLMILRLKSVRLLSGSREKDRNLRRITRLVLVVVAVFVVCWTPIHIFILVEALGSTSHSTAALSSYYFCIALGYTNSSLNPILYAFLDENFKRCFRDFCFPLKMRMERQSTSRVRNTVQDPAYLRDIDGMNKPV
# [39] = Inhibition of alpha 2 adrenergic receptor at 10 uM by CEREP assay
# [40] = Inhibition of sigma receptor at 10 uM by CEREP assay
# Homo sapiens = species: Homo sapiens; test: Inhibition of human AMPA receptor at 10 uM by CEREP assay
# [41] = target: Sodium-dependent dopamine transporter (Homo sapiens) (UniProt Q01959); test: Inhibition of human DA transporter at 10 uM by CEREP assay
# [42] = target: Phosphodiesterase 3 (Homo sapiens) (UniProt Q14432+Q13370); test: Inhibition of human PDE3 at 10 uM by CEREP assay; assay type: protein assay
# [43] = target: Corticotropin-releasing factor receptor 1 (Homo sapiens) (UniProt P34998); test: Inhibition of human CRF1 receptor at 10 uM by CEREP assay
# [44] = Half life in mouse at 7.1 mg/kg, po; assay type: ADME, organism-based; set-up: dose 7.1 mg/kg, route oral; conditions: in vivo
structure (smiles),measurement,setting,value
CCc1cccc(CC)c1Cc1ncc[nH]1,inhibition,[1],4%
same,inhibition,[2],8%
same,inhibition,[3],-1%
same,inhibition,[4],45%
same,inhibition,[5],9%
same,inhibition at 10 µM,[6],0%
same,inhibition,[7],22%
same,inhibition,[8],-2%
same,inhibition,[9],-5%
same,inhibition,[10],31%
same,inhibition,[11],7%
same,inhibition,[12],0%
same,inhibition,[13],-3%
same,inhibition,[14],-6%
same,Cmax,[15],100 ng/mL
same,inhibition,[16],7%
same,inhibition,[17],19%
same,inhibition,[18],2%
same,inhibition,[19],-8%
same,inhibition,[20],3%
same,inhibition,[21],6%
same,inhibition,[22],-5%
same,inhibition,[23],2%
same,Ratio Ki,CHL,100
same,inhibition,[24],32%
same,inhibition,[25],-7%
same,inhibition,[26],-3%
same,inhibition,[27],1%
same,inhibition,[28],96%
same,inhibition,[29],-4%
same,inhibition,[30],-6%
same,inhibition,[31],8%
same,inhibition,[32],-1%
same,inhibition,[33],15%
same,inhibition,[34],-3%
same,inhibition,[35],10%
same,inhibition,[36],3%
same,inhibition,[37],2%
same,inhibition,[38],19%
same,inhibition,[39],73%
same,inhibition,[40],14%
same,inhibition,Homo sapiens,11%
same,inhibition,[41],0%
same,inhibition,[42],-5%
same,inhibition,[43],-4%
same,half-life,[44],57 min
